Results: paper PMC6682008 (ACS Omega, 2019)

Molecular target: hSPR (human sepiapterin reductase) (Homo sapiens, UniProt P35270)
Test: colorimetric sepiapterin reduction, absorbance decrease at […] nm
Type: biochemical

hSPR (human sepiapterin reductase), sequence (P35270 whole entry): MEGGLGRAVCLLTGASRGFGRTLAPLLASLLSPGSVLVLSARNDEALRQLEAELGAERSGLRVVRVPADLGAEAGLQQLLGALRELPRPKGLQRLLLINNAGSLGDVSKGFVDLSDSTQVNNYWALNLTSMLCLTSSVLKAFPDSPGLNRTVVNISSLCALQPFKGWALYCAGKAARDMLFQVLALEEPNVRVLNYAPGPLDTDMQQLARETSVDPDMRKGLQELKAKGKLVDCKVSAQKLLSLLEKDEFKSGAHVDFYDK

Row | SMILES | IC50 [µM]
1 | CC(=O)NCCc1c[nH]c2ccc(O)cc12 [N-acetylserotonin, reference compound] | 11.6
2 | C[C@H](Cc1ccc(O)c(O)c1)[C@@H](C)Cc1ccc(O)c(O)c1 [nordihydroguaiaretic acid] | 8.26
3 | COc1ccc(/C=C/C(=O)Nc2ccccc2C(=O)O)cc1OC [tranilast, N-3′,4′-dimethoxycinnamoyl-anthranilic acid] | 5.89
